Here are results for one compound from article PMC6379368, “Extracellular and intracellular small-molecule galectin-3 inhibitors” (Scientific Reports, 2019).

Common to all, as to format: cell-based
The test system of one data set is PanC-1 cells. Nature of the data set: Growth curves, PanC-1. As to conditions: PanC-1, 10 µM. The method, then: (§1) METHODS (not described in main article)
(§2) The AsPC-1, BxPc-3, MIA PaCa-2, and PanC-1 pancreatic cancer cell lines were purchased from the American Type Culture Collection (ATCC) (Manassas, VA, USA). AsPC-1 and BxPc-3 cell lines were cultured in RPMI-1640 medium, and MIA PaCa-2 and PanC-1 in Dulbecco's Modified Eagle Medium (DMEM)/Ham's F12 medium mixture (1:1). The medium of all four pancreatic cancer cell lines was supplemented with 10 % fetal bovine serum (FBS), 100 U/ml penicillin, and 100 μg/ml streptomycin. The L56Br-C1 breast cancer cell line was established at Lund University (Lund, Sweden)1, and was cultured in RPMI-1640 medium supplemented with 10 % heat-inactivated FBS, 100 U/ml penicillin, 100 μg/ml streptomycin, 1 mM non-essential amino acids, and 10 µg/ml insulin. The MCF-10A normal-like breast cell line was obtained from ATCC and was cultured in the same medium mixture as L56Br-C1 with the addition of 20 ng/ml epidermal growth factor, 50 ng/ml cholera toxin, and 500 ng/ml hydrocortisone.
(§3) Fluorescence anisotropy assay
(§4) The affinity between inhibitor 1 and the carbohydrate recognition domain (CRD) of galectin-8C and between inhibitor 3 and the CRD of galectin-2, -4N, -4C, 8C, and -9C was determined using the fluorescence anisotropy assay described in the main article. Experimental conditions used for each galectin […]

The next data set deals with MCF-10A cells. Nature of the data set: MTT assay, MCF-10A normal-like breast cell line. The following applies: 72 hours. The method, then: The MTT (3-[4,5-dimethylthiazol-2-yl]−2,5-diphenyltetrazolium bromide) assays were performed as previously described. In brief, cells were seeded in 96-well plates (6000 cells/well for MCF-7 and HCC1937 and 5000 cells for JIMT-1 in 180 μl fully-supplemented medium as described under Cell culture). The cells were incubated for 24 hours before addition of galectin-3 inhibitors. The inhibitors were diluted in PBS from their respective stock solution in DMSO (see Galectin-3 inhibitors) and used at final concentrations ranging from 0.04 to 40 μM. DMSO was adjusted to make the final DMSO concentration 0.2% for all inhibitor concentrations, including the control sample (no inhibitor). After 72 hours of treatment, 20 μl of 5 mg/ml MTT solution (in PBS) was added to each well and incubation continued for 1 hour at 37 °C. […] Absorbance was monitored at 540 nm using a Labsystems iEMS Reader MF (Labsystems Oy, Helsinki, Finland) and the software DeltaSoft II v.4.14 (Biometallics Inc., Princeton, NJ, USA). […]
as §3
The affinity between inhibitor 1 and the carbohydrate recognition domain (CRD) of galectin-8C and between inhibitor 3 and the CRD of galectin-2, -4N, -4C, 8C, and -9C was determined using the fluorescence anisotropy assay described in the main article. […]
For orientation: Tetrazolium assays rely on reduction of a dye to a coloured formazan, in cell work by metabolically active cells.

The subject of another data set is L56Br-C1 cells. Nature of the data set: Growth curves, L56Br-C1 breast cancer cells. As to conditions: L56Br-C1, 10 µM. The method, then: as §1, §2, §3, §4
In another data set the test system is MCF-7 cells. As to the kind of experiment: MTT cell viability assay, MCF-7. As to conditions: MCF-7, 72 hours, 0.04–40 µM for 1 and 2, 0.04–20 µM for 3. The method, then: The MTT (3-[4,5-dimethylthiazol-2-yl]−2,5-diphenyltetrazolium bromide) assays were performed as previously described. […] The cells were incubated for 24 hours before addition of galectin-3 inhibitors. The inhibitors were diluted in PBS from their respective stock solution in DMSO (see Galectin-3 inhibitors) and used at final concentrations ranging from 0.04 to 40 μM. DMSO was adjusted to make the final DMSO concentration 0.2% for all inhibitor concentrations, including the control sample (no inhibitor). After 72 hours of treatment, 20 μl of 5 mg/ml MTT solution (in PBS) was added to each well and incubation continued for 1 hour at 37 °C. Thereafter, the MTT containing medium was removed and 100 μl of DMSO was added per well and the plates swirled gently for 10 minutes to dissolve the cells and the purple formazan product precipitate. Absorbance was monitored at 540 nm using a Labsystems iEMS Reader MF (Labsystems Oy, Helsinki, Finland) and the software DeltaSoft II v.4.14 (Biometallics Inc., Princeton, NJ, USA).

The structures appear in SMILES notation.

With `OC[C@H]1O[C@@H](S[C@@H]2O[C@H](CO)[C@H](O)[C@H](n3cc(-c4cccc(F)c4)nn3)[C@H]2O)[C@H](O)[C@@H](n2cc(-c3cccc(F)c3)nn2)[C@H]1O` [compound 1], the “cell proliferation (growth curves)” value with PanC-1 cells and in the data set with L56Br-C1 cells was “no effect” in each case. Moreover, the “toxicity (MTT)” value with MCF-10A cells is given as “low toxicity”. Further, the “cell viability (MTT)” value in the data set with MCF-7 cells is recorded as “no apparent change in cell viability”.
